The record followed here is PubChem BioAssay (NCI).

Among the test systems are ACHN renal; HCT-15 colon; K-562 leukemia; MCF7 breast; MDA-MB-435; NCI-H460 lung; OVCAR-8 ovarian; SK-MEL-2 melanoma; UACC-257 melanoma; UACC-62 melanoma.
Experiment in all cases: inhibition of tumour cell growth, NCI panel, 48 h

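Exposure lasted 48 hours, with cells grown in 96-well plates and compounds tested at five concentrations. Definition used: TGI = concentration required for complete inhibition of growth.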 Some results are limits rather than exact numbers.

Regarding `NCCNCCCCCCNC(=O)c1cccc2cc3ccccc3nc12`, the TGI was found to be 5.98 µM in the experiment on ACHN renal; 25.5 µM in the experiment on HCT-15 colon; 6.77 µM in the experiment on K-562 leukemia; 5.39 µM in the experiment with MCF7 breast; 11.9 µM in the experiment on MDA-MB-435; 2.98 µM in the experiment with NCI-H460 lung. The TGI with OVCAR-8 ovarian was found to be 5.27 µM; with SK-MEL-2 melanoma it was 10.2 µM; in the experiment on UACC-257 melanoma it was 15.2 µM; in the experiment with UACC-62 melanoma, 4.64 µM.

On to `CCCC(CC)c1c(O)c(O)c(C(CC)CCC)c(C(CC)CCC)c1C(CC)CCC` (stereo not given), for which the TGI in the experiment with ACHN renal, in the experiment on HCT-15 colon, in the experiment with K-562 leukemia, in the experiment on MCF7 breast, in the experiment with MDA-MB-435 and in the experiment with NCI-H460 lung was > 10 µM throughout. Also, the TGI with OVCAR-8 ovarian, in the experiment with SK-MEL-2 melanoma, in the experiment with UACC-257 melanoma and in the experiment with UACC-62 melanoma was > 10 µM in each case.

For the compound `N#Cc1c(N2CCCC2)ncn(Cc2ccccc2)c1=S`, the TGI in the experiment on ACHN renal, in the experiment with HCT-15 colon, in the experiment on K-562 leukemia, with MCF7 breast, in the experiment on MDA-MB-435 and in the experiment on NCI-H460 lung was > 100 µM throughout. The TGI in the experiment with OVCAR-8 ovarian, in the experiment on SK-MEL-2 melanoma, in the experiment with UACC-257 melanoma and in the experiment with UACC-62 melanoma was > 100 µM in each case.

As for `COc1c(OC)c(O)c2c(=O)c(OC)c(-c3ccc4c(c3)OCO4)oc2c1O`, the TGI in the experiment on ACHN renal, in the experiment with HCT-15 colon, with K-562 leukemia, in the experiment on MCF7 breast, in the experiment with MDA-MB-435 and in the experiment on NCI-H460 lung was > 100 µM throughout. Besides, the TGI in the experiment with OVCAR-8 ovarian, with SK-MEL-2 melanoma, in the experiment on UACC-257 melanoma and with UACC-62 melanoma was > 100 µM in each case.

In the case of `C=CC(C)(C)N[C@@H](C(=O)N1CCC[C@H]1c1nc(-c2nc(C(=O)OCC=C(C)C)c(C)o2)c(C)o1)C(C)C`, the TGI in the experiment with ACHN renal is 88.3 µM; in the experiment with HCT-15 colon, 51.5 µM; in the experiment with K-562 leukemia, > 100 µM; in the experiment on MCF7 breast, 91.4 µM; with MDA-MB-435, 39.8 µM; with NCI-H460 lung, 51.1 µM. Also, the TGI in the experiment with OVCAR-8 ovarian worked out at 65 µM; with SK-MEL-2 melanoma, 73.5 µM; in the experiment with UACC-257 melanoma, 38.4 µM; in the experiment with UACC-62 melanoma, 38.6 µM.

In the case of `O=C(NCCCCNCCCNC(=O)c1ccccc1)c1ccccc1`, the TGI in the experiment with ACHN renal, in the experiment with HCT-15 colon, in the experiment on K-562 leukemia, in the experiment on MCF7 breast, in the experiment on MDA-MB-435 and in the experiment with NCI-H460 lung was > 100 µM each time. Besides, the TGI in the experiment on OVCAR-8 ovarian, in the experiment on SK-MEL-2 melanoma, in the experiment on UACC-257 melanoma and in the experiment with UACC-62 melanoma was > 100 µM each time.

Regarding `COCN1CCN=c2c1c1c3c(c4ccccc4n23)CCC1`, the TGI in the experiment on ACHN renal, with HCT-15 colon, in the experiment on K-562 leukemia, with MCF7 breast, with MDA-MB-435 and in the experiment on NCI-H460 lung was > 100 µM throughout. Moreover, the TGI in the experiment with OVCAR-8 ovarian, with SK-MEL-2 melanoma, in the experiment on UACC-257 melanoma and with UACC-62 melanoma was > 100 µM throughout.

For `N#CC(C#N)=Cc1c(O)ccc2ccccc12`, the TGI in the experiment with ACHN renal stood at 23.9 µM; with HCT-15 colon, 37.5 µM; in the experiment with K-562 leukemia it was 24.6 µM; in the experiment on MCF7 breast it was 34.3 µM; in the experiment on MDA-MB-435 it was 30 µM; in the experiment on NCI-H460 lung it was 36.7 µM. The TGI came out at 36.4 µM with OVCAR-8 ovarian, 37.8 µM with SK-MEL-2 melanoma, 32.6 µM in the experiment with UACC-257 melanoma and 31.1 µM with UACC-62 melanoma.

For the compound `COc1ccc(/C=C(\C(=C/c2ccc(OC)cc2)[N+](=O)[O-])[N+](=O)[O-])cc1`, the TGI in the experiment with ACHN renal is 17.1 µM; with HCT-15 colon, 6.18 µM; in the experiment with K-562 leukemia it was > 34.5 µM; in the experiment with MCF7 breast, 27.3 µM; in the experiment with MDA-MB-435, 12.1 µM; with NCI-H460 lung, 12.2 µM. Besides, the TGI in the experiment with OVCAR-8 ovarian is 5.97 µM; with SK-MEL-2 melanoma it was 39.7 µM; in the experiment on UACC-257 melanoma, 17.1 µM; with UACC-62 melanoma it was 9.38 µM.

On to `CCCn1c(=O)c2ccccc2[n+]2c(-c3ccc([N+](=O)[O-])cc3)csc12`, for which the TGI in the experiment with ACHN renal was > 100 µM; in the experiment on HCT-15 colon it was > 100 µM; in the experiment with K-562 leukemia, 69.4 µM; in the experiment with MCF7 breast it was > 100 µM; in the experiment with MDA-MB-435, > 100 µM; in the experiment on NCI-H460 lung, > 100 µM. Also, the TGI with OVCAR-8 ovarian is 83.4 µM; in the experiment with SK-MEL-2 melanoma it was > 100 µM; with UACC-257 melanoma, > 100 µM; in the experiment with UACC-62 melanoma, > 100 µM.

Turning to `O=c1[nH]c2ccccc2nc1/C=C(\O)C(F)F`, the TGI in the experiment with ACHN renal, with HCT-15 colon, with K-562 leukemia, in the experiment on MCF7 breast, with MDA-MB-435 and in the experiment with NCI-H460 lung was > 100 µM each time. Also, the TGI in the experiment with OVCAR-8 ovarian, in the experiment on SK-MEL-2 melanoma, in the experiment on UACC-257 melanoma and with UACC-62 melanoma was > 100 µM each time.

Turning to `COc1cc(/C=C2\N=C(c3ccccc3)N(/N=C3\C(=O)Nc4ccccc43)C2=O)cc(OC)c1OC`, the TGI in the experiment with ACHN renal, with HCT-15 colon, in the experiment with K-562 leukemia, in the experiment on MCF7 breast, with MDA-MB-435 and in the experiment with NCI-H460 lung was > 100 µM throughout. Moreover, the TGI with OVCAR-8 ovarian, in the experiment on SK-MEL-2 melanoma, with UACC-257 melanoma and in the experiment on UACC-62 melanoma was > 100 µM each time.
